Reference: US7314968B2, “Transgenic fish and β-catenin signaling pathway model” (University of Washington, priority 2002, dated 2008)

How the values were obtained:
hdl = hdl morpholino injection into one-cell TOPdGFP transgenic zebrafish embryos, in situ hybridization and phenotype; assay type: in vivo
Protocol: (§1) In Situ Hybridizations: In situ hybridization was performed as described previously (Oxtoby and Jowett, 1993). The GFP probe was made by antisense transcription of TOPdGFP, using a T7 promoter present in the construct. The Probe for hdl was made from a full-length clone isolated in our laboratory, subcloned into pCS2+. Probes for pax2.1 (Krauss et al., 1991), tbx6 (Hug et al., 1997), and lef1 (Dorsky et al., 1999) were made as described previously. Images were taken with a Kodak DC290 digital camera and processed with Adobe Photoshop 5.0.
(§2) Morpholino Injections: Morpholino antisense oligonucleotides targeted to lef1 and hdl were obtained from Gene Tools (Corvallis, Oreg.). lef1 MO sequence: 5′- […]-3′ (SE ID NO:3); hdl MO sequence: 5′- […]-3(SEQ ID NO:4).
(§3) Approximately 1 ng of the morpholinos was injected into one-cell homozygous transgenic embryos that were fixed for in situ hybrid-ization at appropriate stages. Injections of control morpholinos produced no effect on TOPdGFP expression.

lef1 = lef1 morpholino injection into one-cell TOPdGFP transgenic zebrafish embryos, in situ hybridization and phenotype; assay type: in vivo
Protocol: as §1, §2, §3

Substance	expression of midbrain marker pax2 (hdl; bud stage)	expression of ventrolateral mesoderm markers spt and tbx6 (hdl; bud stage)	posterior GFP expression (hdl; bud stage)	embryo phenotype (hdl; injection at the one-cell stage, 36 hpf)	anterior TOPdGFP expression (hdl; shield stage or bud stage)	embryo phenotype (lef1; 36 hpf)	TOPdGFP expression in the embryo (lef1; bud stage)	expression of spt and tbx6 (lef1; bud stage)	pax2 expression (lef1; bud stage)
hdl morpholino: Morpholino antisense oligonucleotide targeted to zebrafish hdl, 5′- CTCCGTTTAACTGAGGCATGTTGGC-3 (SEQ ID NO:4), from Gene Tools (all phosphorodiamidate morpholino (PMO))	anterior expansion	no effect	no effect	phenotype indistinguishable from hdl mutant embryos	does not expand				
lef1 morpholino: Morpholino antisense oligonucleotide targeted to zebrafish lef1, 5′- CTCCTCCACCTGACAACTGCGGCAT-3′ (SEQ ID NO:3), from Gene Tools (all phosphorodiamidate morpholino (PMO))						tail truncations and loss of paraxial mesoderm, but normal head development	striking decrease	decreased expression	no effect
